Source: patent US8609715B2, “Heteroarylcarboxylic acid ester derivative” (Ajinomoto Co., Inc., priority 2009, dated 2013)
Counter-ions that a name gives are not always drawn.

Key:
KK-A^y/JCL mice = experiment: Evaluation of antidiabetic action (blood glucose level); assay type: in vivo
Text: Evaluation of Antidiabetic Action KK-A^y/JCL mice (male, 5- to 7-week-old, CLEA Japan, Inc.) known to spontaneously develop obese type 2 diabetes were purchased and, after one week of preliminary rearing period, grouped (6 per group) with the body weight and non-fasting blood glucose levels as indices. The animals were individually housed in a polycarbonate cage and allowed to drink water freely from a watering bottle. […] CRF-1 alone was given to the control group. After one week of dosing period, the blood (6 μL) was drawn from the tail vein of the animals, and the blood glucose level was measured by ACCU-CHEK Aviva (Roche Diagnostics K.K.). A significant difference from the control group was detected by Dunnett's multiple comparison test or Student's t-test (significance level less than 5%).

[1] = molecular target: recombinant human enteropeptidase (Homo sapiens (Human), UniProt P98073); experiment: Measurement of enteropeptidase inhibitory activity; assay type: biochemical; details: Dixon plot
Chain of recombinant human enteropeptidase (P98073 whole entry): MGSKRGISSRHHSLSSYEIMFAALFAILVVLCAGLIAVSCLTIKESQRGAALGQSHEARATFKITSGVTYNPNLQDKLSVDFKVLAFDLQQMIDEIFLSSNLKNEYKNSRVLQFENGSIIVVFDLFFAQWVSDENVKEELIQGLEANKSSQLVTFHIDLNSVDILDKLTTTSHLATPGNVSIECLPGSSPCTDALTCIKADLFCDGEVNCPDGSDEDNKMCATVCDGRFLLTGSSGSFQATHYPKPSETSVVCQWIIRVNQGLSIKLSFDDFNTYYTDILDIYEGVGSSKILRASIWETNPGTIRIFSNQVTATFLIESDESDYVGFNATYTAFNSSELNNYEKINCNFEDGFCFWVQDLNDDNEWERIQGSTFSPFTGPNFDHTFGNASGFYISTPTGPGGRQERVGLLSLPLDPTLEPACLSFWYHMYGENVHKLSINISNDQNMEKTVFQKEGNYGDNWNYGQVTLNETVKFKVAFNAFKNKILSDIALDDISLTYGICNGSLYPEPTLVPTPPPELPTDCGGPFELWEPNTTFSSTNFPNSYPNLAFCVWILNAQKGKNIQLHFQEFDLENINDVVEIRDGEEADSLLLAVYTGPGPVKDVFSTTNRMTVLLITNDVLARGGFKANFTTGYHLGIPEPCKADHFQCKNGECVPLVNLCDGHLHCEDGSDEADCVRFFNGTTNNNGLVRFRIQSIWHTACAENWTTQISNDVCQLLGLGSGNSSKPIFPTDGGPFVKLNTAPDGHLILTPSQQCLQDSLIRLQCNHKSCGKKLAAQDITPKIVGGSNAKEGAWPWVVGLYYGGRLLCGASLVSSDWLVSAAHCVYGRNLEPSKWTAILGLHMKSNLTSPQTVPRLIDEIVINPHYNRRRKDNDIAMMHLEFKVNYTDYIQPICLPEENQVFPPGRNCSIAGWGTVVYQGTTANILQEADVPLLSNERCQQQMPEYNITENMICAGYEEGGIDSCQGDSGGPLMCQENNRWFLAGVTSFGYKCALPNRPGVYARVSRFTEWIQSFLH
Procedure: Measurement of Enteropeptidase Inhibitory Activity
Using a 96 well plate (#3915, Costar), a test compound (25 μL), 400 mM Tris-HCl buffer (pH 8.0, 25 μL) and 0.5 mg/mL fluorescence enzyme substrate (Gly-Asp-Asp-Asp-Asp-Lys-β-Naphtylamide, 25 μL) were mixed, and recombinant human enteropeptidase (R&D Systems, Inc., 25 μL) was added. Using a fluorescence plate reader fmax (Molecular Devices, Inc.), the reaction rate was measured from the time-course changes at excitation wavelength 320 nm and fluorescence wavelength 405 nm. The Ki value was calculated from the concentration of the test compound, reciprocal of reaction rate, and Km value of the enzyme substrate, and by using Dixon plot.

[2] = dose 5.6 mg/100 g mixed in feed CRF-1, after one week of dosing

## CC(Cc1ccc(C(=O)Oc2ccc(C(=N)N)cc2)o1)C(=O)N[C@H](CC(=O)O)C(=O)O.O=C(O)C(F)(F)F (some centres unmarked) [A-28 hydrochloride]
KK-A^y/JCL mice; [2]
  Mean blood glucose level: 219 mg/dL

## CC(Cc1ccc(C(=O)Oc2ccc(C(=N)N)cc2)s1)C(=O)N[C@@H](CC(=O)O)C(=O)O.O=C(O)C(F)(F)F (some centres unmarked) [B-18 hydrochloride]
KK-A^y/JCL mice; [2]
  Mean blood glucose level: 217 mg/dL
KK-A^y/JCL mice; dose 16.8 mg/100 g mixed in feed CRF-1, after one week of dosing
  Mean blood glucose level: 138 mg/dL

## CC(Cc1ccc(C(=O)Oc2ccc(C(=N)N)cc2F)s1)C(=O)N[C@@H](CC(=O)O)C(=O)O.O=C(O)C(F)(F)F (some centres unmarked) [B-20 hydrochloride]
KK-A^y/JCL mice; [2]
  Mean blood glucose level: 197 mg/dL

## CC(Cc1ccc(C(=O)Oc2ccc(C(=N)N)cc2)s1)C(=O)N[C@H](CC(=O)O)C(=O)O.Cl (some centres unmarked) [B-23 hydrochloride]
KK-A^y/JCL mice; [2]
  Mean blood glucose level: 198 mg/dL

## N=C(N)c1ccc(OC(=O)c2ccc(CCC(=O)N[C@@H](CC(=O)O)C(=O)O)s2)c(F)c1.O=C(O)C(F)(F)F [B-32 hydrochloride]
KK-A^y/JCL mice; [2]
  Mean blood glucose level: 249 mg/dL

## CC(Cc1ccc(C(=O)Oc2ccc(C(=N)N)cc2F)s1)C(=O)N1CCCC(C(=O)O)C1 (centres unmarked) [Compound B-34]
[1]
  Ki: 2.2 nM

## CC(Cc1ccc(C(=O)Oc2ccc(C(=N)N)cc2F)s1)C(=O)N[C@@H](CO)C(=O)O (some centres unmarked) [Compound B-35]
[1]
  Ki: 0.4 nM

## N=C(N)c1ccc(OC(=O)c2ccc(CCC(=O)N[C@H](CC(=O)O)C(=O)O)s2)c(F)c1 [Compound B-36]
[1]
  Ki: 0.51 nM

## N=C(N)c1ccc(OC(=O)c2ccc(CCC(=O)N(CCC(=O)O)CC(=O)O)s2)c(F)c1 [Compound B-37]
[1]
  Ki: 0.5 nM

## C=CCN(CC(=O)O)C(=O)CCc1ccc(C(=O)Oc2ccc(C(=N)N)cc2F)s1 [Compound B-38, N-{3-[5-(4-amidino-2-fluorophenoxycarbonyl)thiophen-2-yl]propionyl}-N-allylglycine trifluoroacetic acid salt]
[1]
  Ki: 0.75 nM

## CC(Cc1ccc(C(=O)Oc2ccc(C(=N)N)cc2)s1)C(=O)N[C@@H](CS(=O)(=O)O)C(=O)O (stereo partly drawn) [Compound B-39, N-{3-[5-(4-amidinophenoxycarbonyl)-thiophen-2-yl]-2-methylpropanoyl}-L-cysteic acid trifluoroacetic acid salt]
[1]
  Ki: 0.95 nM

## CC(Cc1ccc(C(=O)Oc2ccc(C(=N)N)cc2)s1)C(=O)NCP(=O)(O)O (centres unmarked) [Compound B-40, N-{3-[5-(4-amidinophenoxycarbonyl)-thiophen-2-yl]-2-methylpropanoyl}aminomethylphosphonic acid trifluoroacetic acid salt]
[1]
  Ki: 2 nM

## CC(Cc1ccc(C(=O)Oc2ccc(C(=N)N)cc2F)s1)C(=O)N[C@@H](CS(=O)(=O)O)C(=O)O (some centres unmarked) [Compound B-41]
[1]
  Ki: 0.27 nM

## CC(Cc1ccc(C(=O)Oc2ccc(C(=N)N)cc2F)s1)C(=O)NCP(=O)(O)O (centres unmarked) [Compound B-42]
[1]
  Ki: 0.37 nM

## CC(Cc1ccc(C(=O)Oc2ccc(C(=N)N)cc2Cl)s1)C(=O)NCP(=O)(O)O (centres unmarked) [Compound B-43]
[1]
  Ki: 0.42 nM

## CC(Cc1ccc(C(=O)Oc2ccc(C(=N)N)cc2Cl)s1)C(=O)N[C@@H](CS(=O)(=O)O)C(=O)O (some centres unmarked) [Compound B-44]
[1]
  Ki: 0.21 nM

## CC(CCC(=O)O)Cc1ccc(C(=O)Oc2ccc(C(=N)N)cc2)s1 (centres unmarked) [Compound B-47]
[1]
  Ki: 2.5 nM

## CC(CCC(=O)O)Cc1ccc(C(=O)Oc2ccc(C(=N)N)cc2F)s1 (centres unmarked) [Compound B-48]
[1]
  Ki: 0.88 nM

## CC(CCC(=O)N[C@@H](CC(=O)O)C(=O)O)Cc1ccc(C(=O)Oc2ccc(C(=N)N)cc2F)s1 (some centres unmarked) [Compound B-49]
[1]
  Ki: 0.41 nM

## CC(CCC(=O)N[C@@H](CC(=O)O)C(=O)O)Cc1ccc(C(=O)Oc2ccc(C(=N)N)cc2)s1 (some centres unmarked) [Compound B-50]
[1]
  Ki: 0.89 nM

## CC(Cc1cc(C(=O)Oc2ccc(C(=N)N)cc2F)cs1)C(=O)O (centres unmarked) [Compound B-51, 3-[4-(4-amidino-2-fluorophenoxycarbonyl)thiophen-2-yl]-2-methylpropanoic acid trifluoroacetic acid salt]
[1]
  Ki: 0.72 nM

## CC(Cc1cc(C(=O)Oc2ccc(C(=N)N)cc2F)cs1)C(=O)N[C@@H](CC(=O)O)C(=O)O (some centres unmarked) [Compound B-52]
[1]
  Ki: 0.39 nM

## CC(Cc1cc(C(=O)Oc2ccc(C(=N)N)cc2)cs1)C(=O)N[C@@H](CC(=O)O)C(=O)O (some centres unmarked) [Compound B-53]
[1]
  Ki: 4.8 nM

## N=C(N)c1ccc(OC(=O)c2csc(CCC(=O)N[C@@H](CC(=O)O)C(=O)O)c2)c(F)c1 [Compound B-54, N-{3-[4-(4-amidino-2-fluorophenoxycarbonyl)thiophen-2-yl]propanoyl}-L-aspartic acid trifluoroacetic acid salt]
[1]
  Ki: 0.58 nM

## CC(Cc1csc(C(=O)Oc2ccc(C(=N)N)cc2)c1)C(=O)N[C@@H](CC(=O)O)C(=O)O (some centres unmarked) [Compound B-55]
[1]
  Ki: 0.98 nM

## N=C(N)c1ccc(OC(=O)c2ccc(-c3ccc(C(=O)N[C@@H](CC(=O)O)C(=O)O)cc3)s2)cc1 [Compound B-56]
[1]
  Ki: 9.5 nM

## N=C(N)c1ccc(OC(=O)c2ccc(-c3ccc(C(=O)N[C@@H](CC(=O)O)C(=O)O)cc3)s2)c(F)c1 [Compound B-57]
[1]
  Ki: 3 nM

## N=C(N)c1ccc(OC(=O)c2ccc(-c3cccc(C(=O)N[C@@H](CC(=O)O)C(=O)O)c3)s2)cc1 [Compound B-58]
[1]
  Ki: 9.8 nM

## N=C(N)c1ccc(OC(=O)c2ccc(-c3ccc(C(=O)N[C@@H](CC(=O)O)C(=O)O)s3)s2)cc1 [Compound B-59, N-{5-[5-(4-amidinophenoxycarbonyl)-thiophen-2-yl]thiophen-2-ylcarbonyl}-L-aspartic acid trifluoroacetic acid salt]
[1]
  Ki: 8.2 nM

## N=C(N)c1ccc(OC(=O)c2ccc(CC(=O)N[C@@H](CC(=O)O)C(=O)O)s2)c(F)c1 [Compound B-60, N-[5-(4-amidino-2-fluorophenoxycarbonyl)thiophen-2-ylacetyl]-L-aspartic acid trifluoroacetic acid salt]
[1]
  Ki: 0.64 nM

## Cc1cc(C(=O)Oc2ccc(C(=N)N)cc2F)sc1CCC(=O)N[C@@H](CC(=O)O)C(=O)O [Compound B-61, N-{3-[5-(4-amidino-2-fluorophenoxycarbonyl)-3-methylthiophen-2-yl]propanoyl}-L-aspartic acid trifluoroacetic acid salt]
[1]
  Ki: 0.13 nM

## N=C(N)c1ccc(OC(=O)c2ccc(CCC(=O)N[C@@H](CCC(=O)O)C(=O)O)s2)c(F)c1 [Compound B-62]
[1]
  Ki: 0.57 nM

## C=CCN(C(=O)CCc1ccc(C(=O)Oc2ccc(C(=N)N)cc2F)s1)[C@@H](CC(=O)O)C(=O)O [Compound B-63, N-{3-[5-(4-amidino-2-fluorophenoxycarbonyl)thiophen-2-yl]propanoyl}-N-allyl-L-aspartic acid trifluoroacetic acid salt]
[1]
  Ki: 0.55 nM

## CC(C)(Cc1ccc(C(=O)Oc2ccc(C(=N)N)cc2F)s1)C(=O)N[C@@H](CC(=O)O)C(=O)O [Compound B-64, N-{3-[5-(4-amidino-2-fluorophenoxycarbonyl)thiophen-2-yl]-2,2-dimethylpropanoyl}-L-aspartic acid trifluoroacetic acid salt]
[1]
  Ki: 0.14 nM

## N=C(N)c1ccc(OC(=O)c2ccc(CCC(=O)N[C@@H](Cc3ccc(O)cc3)C(=O)O)s2)c(F)c1 [Compound B-65]
[1]
  Ki: 3.2 nM

## N=C(N)c1ccc(OC(=O)c2ccc(CCC(=O)N[C@@H](CO)C(=O)O)s2)c(F)c1 [Compound B-66]
[1]
  Ki: 0.73 nM

## C/C(=C\c1nc(C(=O)Oc2ccc(C(=N)N)cc2)cs1)C(=O)N(CCCO)CC(=O)O [Compound C-2]
[1]
  Ki: 5.67 nM
